According to US20200390100A1, “SUBSTITUTED N-HETEROCYCLYL- AND N-HETEROARYL-TETRAHYDROPYRIMIDINONES AND THE SALTS THEREOF, AND THE USE OF SAME AS HERBICIDAL ACTIVE SUBSTANCES” (Bayer Aktiengesellschaft, priority 2017, published 2020):

Experiments:
Assay in all cases: Herbicidal pre-emergence action (Part 2), 1280 g/ha
Assay type in all cases: in vivo
Abutilon theophrasti = conditions: application rate 1280 g/ha, scored visually after about 3 weeks, Table D5
Procedure, shortened: (§1)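 Weed seeds were sown in sandy loam and covered with soil, then compound formulated as WP or EC was sprayed onto the covering soil as aqueous suspension/emulsion with 0.5% additive at 600 L/ha water. Pots were kept in a greenhouse; activity was scored visually versus untreated controls after about 3 weeks (0–100%).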

Amaranthus retroflexus = conditions: application rate 1280 g/ha, scored visually after about 3 weeks, Table D6
Procedure, shortened: as §1

Echinochloa crus-galli = conditions: application rate 1280 g/ha, scored visually after about 3 weeks, Table D1
Procedure, shortened: as §1

Lolium rigidum = conditions: application rate 1280 g/ha, scored visually after about 3 weeks, Table D2
Procedure, shortened: as §1

Matricaria inodora = conditions: application rate 1280 g/ha, scored visually after about 3 weeks, Table D7
Procedure, shortened: as §1

Poa annua = conditions: application rate 1280 g/ha, scored visually after about 3 weeks, Table D3
Procedure, shortened: as §1

Setaria viridis = conditions: application rate 1280 g/ha, scored visually after about 3 weeks, Table D4
Procedure, shortened: as §1

Stellaria media = conditions: application rate 1280 g/ha, scored visually after about 3 weeks, Table D8
Procedure, shortened: as §1

CC1CC(O)N(c2cc(C(C)(C)C)on2)C(=O)N1C (centres unmarked) [I.41-162, 1-(5-tert-Butyl-1,2-oxazol-3-yl)-6-hydroxy-3,4-dimethyltetrahydropyrimidin-2(1H)-one]
100%: Abutilon theophrasti (Abutilon theophrasti) | Amaranthus retroflexus (Amaranthus retroflexus) | Echinochloa crus-galli (Echinochloa crus-galli) | Lolium rigidum (Lolium rigidum) | Matricaria inodora (Matricaria inodora) | Poa Annua (Poa annua) | Setaria viridis (Setaria viridis) | Stellaria media (Stellaria media)
